Measurements reported in patent US20070293475A1, “ARYL AND HETEROARYL TETRAHYDROBENZAZEPINE DERIVATIVES AND THEIR USE FOR TREATING GLAUCOMA” (ALCON MAN[…]., priority 2006, published 2007).

Columns and labels:
[1] = target: T1, recombinant rat 5-HT2C receptor (Rattus norvegicus, UniProt P08909); assay: r5-HT2C functional assay: FLIPR, SR3T3 cells; assay type: cell-based; settings: for EC50: FLIPR, SR3T3 cells expressing recombinant rat 5-HT2C, read-out: r5-HT 2C EC50; for Emax: SR-3T3, percentage of maximum 5-HT-induced response, SR3T3 cells, read-out: r5-HT 2C (Emax)
T1 construct: expressed in transfected cells; host or cells: SR3T3 cells
T1 sequence (P08909 33-460): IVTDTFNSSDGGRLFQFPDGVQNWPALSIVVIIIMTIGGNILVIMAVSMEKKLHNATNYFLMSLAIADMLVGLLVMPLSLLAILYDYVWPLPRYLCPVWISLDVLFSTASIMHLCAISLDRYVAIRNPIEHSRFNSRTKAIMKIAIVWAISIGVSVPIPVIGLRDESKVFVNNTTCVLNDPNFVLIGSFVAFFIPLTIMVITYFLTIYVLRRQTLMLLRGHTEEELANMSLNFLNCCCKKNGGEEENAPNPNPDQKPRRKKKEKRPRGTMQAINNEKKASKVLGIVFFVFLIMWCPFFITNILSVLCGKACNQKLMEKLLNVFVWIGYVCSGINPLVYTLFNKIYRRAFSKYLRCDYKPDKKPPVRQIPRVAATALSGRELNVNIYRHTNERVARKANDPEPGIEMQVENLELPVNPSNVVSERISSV
Experimental: (§1) The receptor-mediated mobilization of intracellular calcium ([Ca^2+]i) was studied using the Fluorescence Imaging Plate Reader (FLIPR) instrument. Rat vascular smooth muscle cells, A7r5, were grown in a normal media of DMEM/10% FBS and 10 μg/ml gentamycin. Confluent cell monolayers were trypsinized, pelleted, and re-suspended in normal media. Cells were seeded in a 50 μL volume at a density of 20,000 cells per well in a black wall, 96-well tissue culture plate and grown for 2 days. On the day of the experiment, one vial of FLIPR Calcium Assay Kit dye was re-suspended in 50 ml of a FLIPR buffer consisting of Hank's Balanced Salt Solution (HBSS), 20 mM HEPES, and 2.5 mM probenecid, pH 7.4. Cells were loaded with the calcium-sensitive dye by addition of an equal volume (50 μl) to each well of the 96-well plate and incubated with dye for 1 h at 23° C. Typically, test compounds were stored at […] in 50% DMSO/50% Ethanol solvent. Compounds were diluted 1:50 in 20% DMSO/20% Ethanol. For dose-response experiments, compounds were diluted 1:50 in FLIPR buffer and serially diluted 1:10 to give a 5- or 8-point dose-response curve.
(§2) At the beginning of an experimental run, a signal test was performed to check the basal fluorescence signal from the dye-loaded cells and the uniformity of the signal across the plate. The basal fluorescence was adjusted between 8000-12000 counts by modifying the exposure time, the camera F-stop, or the laser power. The instrument settings for a typical assay were as follows: laser power 0.3-0.6 W, camera F-stop F/2, and exposure time 0.4 sec. An aliquot (25 μl) of the test compound was added to the existing 100 μl dye-loaded cells at a dispensing speed of 50 μl/sec. Fluorescence data were collected in real-time at 1.0 sec intervals for the first 60 sec and at 6.0 sec intervals for an additional 120 sec. Responses were measured as peak fluorescence intensity minus basal and where appropriate were expressed as a percentage of a maximum 5-HT-induced response.
r5-HT2C Functional Assay: FLIPR
This assay were performed as for the r5-HT2A receptor above, except that SR3T3 cells expressing the recombinant rat 5-HT2C receptor were utilized.

r5-HT2A = target: T2, r5-HT2A (Rattus norvegicus, UniProt P14842); assay: r5-HT2A functional assay: FLIPR, intracellular calcium mobilization in A7r5 cells; assay type: cell-based; settings: for EC50: FLIPR, rat A7r5 vascular smooth muscle cells, read-out: r5-HT 2A EC50; for Emax: percentage of maximum 5-HT-induced response, A7r5 cells, read-out: r5-HT 2A (Emax)
T2 construct: endogenous in cells; host or cells: A7r5 rat vascular smooth muscle cells
T2 sequence (P14842 whole entry): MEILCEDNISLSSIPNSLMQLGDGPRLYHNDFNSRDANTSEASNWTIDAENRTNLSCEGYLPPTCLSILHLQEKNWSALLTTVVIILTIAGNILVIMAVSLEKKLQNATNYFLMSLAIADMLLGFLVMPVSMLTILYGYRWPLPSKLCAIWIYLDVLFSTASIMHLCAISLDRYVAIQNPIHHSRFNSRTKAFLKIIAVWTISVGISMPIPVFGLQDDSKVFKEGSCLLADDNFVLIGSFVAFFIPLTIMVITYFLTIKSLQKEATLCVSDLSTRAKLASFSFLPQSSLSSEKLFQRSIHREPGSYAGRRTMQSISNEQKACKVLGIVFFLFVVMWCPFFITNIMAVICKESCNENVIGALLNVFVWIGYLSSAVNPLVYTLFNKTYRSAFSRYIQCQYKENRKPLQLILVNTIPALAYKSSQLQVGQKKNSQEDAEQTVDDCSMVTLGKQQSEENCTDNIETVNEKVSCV
Experimental: r5-HT2A Functional Assay: FLIPR
Rat Vascular Smooth Muscle Cells
as §1, §2

[2] = target: T3, human serotonin receptor clone 5-HT2A (Homo sapiens, UniProt P28223); assay: h5-HT2 functional assay, CHO-K1 aequorin luminescence (5-HT2A); assay type: cell-based; settings: for Emax: CHO-K1, relative to the response of α-methyl-5-HT, read-out: h5-HT 2A (Emax); for EC50: CHO-K1 cells, aequorin, Gα16, read-out: h5-HT 2A EC50
T3 construct: expressed in transfected cells; host or cells: CHO-K1 cells stably expressing aequorin and Galpha16
T3 sequence (P28223 whole entry): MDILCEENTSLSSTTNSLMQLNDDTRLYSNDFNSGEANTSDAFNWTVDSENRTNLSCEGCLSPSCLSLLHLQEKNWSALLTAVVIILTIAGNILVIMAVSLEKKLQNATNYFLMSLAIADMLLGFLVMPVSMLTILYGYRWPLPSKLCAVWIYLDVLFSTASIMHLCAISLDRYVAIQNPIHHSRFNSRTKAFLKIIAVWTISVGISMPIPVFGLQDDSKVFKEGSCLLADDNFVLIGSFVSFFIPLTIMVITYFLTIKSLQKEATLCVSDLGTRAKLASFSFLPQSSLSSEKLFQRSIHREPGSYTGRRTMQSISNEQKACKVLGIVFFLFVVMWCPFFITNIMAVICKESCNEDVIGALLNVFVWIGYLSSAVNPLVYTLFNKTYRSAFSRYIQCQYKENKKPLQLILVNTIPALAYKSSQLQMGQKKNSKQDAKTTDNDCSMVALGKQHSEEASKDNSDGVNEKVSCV
Experimental: (§3) Functional response at the 5-HT2 receptor subtypes was determined using CHO-K1 cells stably expressing mitochondrially-targeted bioluminescent aequorin, Gα16, and one of either human serotonin receptor clone 5-HT2A, 5-HT2B , or 5-HT2C. Prior to testing, cells were loaded in suspension with coelenterazine for 4-16 hours and directly injected onto different concentrations of the test compound. Light emitted from the cells was measured 20-30 seconds following receptor activation. A luminometer (Hamamatsu, FDSS-6000) was used to record luminescence in response to the test compound. The mean response signal at each of 8-11 different concentrations was integrated to provide an estimation of receptor activation, expressed as the EC50 value. The efficacy of the response (Emax) at the 5-HT2A and 5-HT2B receptors is expressed relative to the response of α-methyl-5-HT under the same assay conditions while the efficacy at 5-HT2C is expressed relative to the response of 5-HT.

[3] = target: T4, human serotonin receptor clone 5-HT2B (Homo sapiens, UniProt P41595); assay: h5-HT2 functional assay, CHO-K1 aequorin luminescence (5-HT2B); assay type: cell-based; settings: for Emax: CHO-K1, relative to the response of α-methyl-5-HT, read-out: h5-HT 2B (Emax); for EC50: CHO-K1 cells, aequorin, Gα16, read-out: h5-HT 2B EC50
T4 construct: expressed in transfected cells; host or cells: CHO-K1 cells stably expressing aequorin and Galpha16
T4 sequence (P41595 whole entry): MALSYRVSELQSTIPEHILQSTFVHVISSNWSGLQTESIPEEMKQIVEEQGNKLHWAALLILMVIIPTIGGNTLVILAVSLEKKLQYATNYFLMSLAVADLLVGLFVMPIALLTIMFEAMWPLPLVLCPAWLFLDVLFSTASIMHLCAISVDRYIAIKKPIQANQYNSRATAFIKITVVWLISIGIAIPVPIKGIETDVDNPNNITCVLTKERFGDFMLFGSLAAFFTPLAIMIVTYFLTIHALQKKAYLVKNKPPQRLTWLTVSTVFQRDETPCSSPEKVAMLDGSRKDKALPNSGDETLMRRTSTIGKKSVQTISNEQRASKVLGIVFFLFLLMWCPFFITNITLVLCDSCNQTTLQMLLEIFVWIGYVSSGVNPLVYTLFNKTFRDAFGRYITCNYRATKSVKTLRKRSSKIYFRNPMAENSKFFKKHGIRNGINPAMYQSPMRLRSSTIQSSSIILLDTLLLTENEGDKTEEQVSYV
Experimental: as §3

[4] = target: T5, human serotonin receptor clone 5-HT2C (Homo sapiens, UniProt P28335); assay: h5-HT2 functional assay, CHO-K1 aequorin luminescence (5-HT2C); assay type: cell-based; settings: for Emax: CHO-K1, relative to the response of 5-HT, read-out: h5-HT 2C (Emax); for EC50: CHO-K1 cells, aequorin, Gα16, read-out: h5-HT 2C EC50
T5 construct: expressed in transfected cells; host or cells: CHO-K1 cells stably expressing aequorin and Galpha16
T5 sequence (P28335 33-458): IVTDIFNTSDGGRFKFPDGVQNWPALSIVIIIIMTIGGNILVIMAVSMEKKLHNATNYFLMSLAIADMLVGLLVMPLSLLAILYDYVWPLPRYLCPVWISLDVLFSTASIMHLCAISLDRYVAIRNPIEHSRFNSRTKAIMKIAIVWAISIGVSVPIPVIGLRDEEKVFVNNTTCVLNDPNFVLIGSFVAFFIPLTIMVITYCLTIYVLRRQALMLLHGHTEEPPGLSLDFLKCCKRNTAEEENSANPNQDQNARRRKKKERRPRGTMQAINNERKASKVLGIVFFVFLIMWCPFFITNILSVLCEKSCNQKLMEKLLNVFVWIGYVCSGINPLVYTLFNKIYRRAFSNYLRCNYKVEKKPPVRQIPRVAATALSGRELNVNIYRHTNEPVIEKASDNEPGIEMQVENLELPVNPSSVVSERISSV
Experimental: as §3

[5] = system: Lasered (Hypertensive) Eyes of Conscious Cynomolgus Monkeys; assay: Acute IOP response in lasered (hypertensive) eyes of conscious cynomolgus monkeys; assay type: in vivo; settings: for IOP change (mmHg): value in parentheses
Experimental: Acute IOP Response in Lasered (Hypertensive) Eyes of Conscious Cynomolgus Monkeys
Intraocular pressure (IOP) can be determined with an Alcon Pneumatonometer after light corneal anesthesia with 0.1% proparacaine. Eyes are washed with saline after each measurement. After a baseline IOP measurement, test compound is instilled in one 30 μL aliquot to the right eyes only of nine cynomolgus monkeys. Vehicle is instilled in the right eyes of six is additional animals. Subsequent IOP measurements are taken at 1, 3, and 6 hours.
The above method was used to determine the IOP lowering efficacy of Compound 1. All eyes were pretreated with 1 drop of 0.5% proparacaine to address discomfort.

[6] = dose 100 μg topical, 1 hr, baseline IOP 38.3 mmHg
[7] = dose 100 μg topical, 3 hr, baseline IOP 38.3 mmHg
[8] = dose 100 μg topical, 6 hr, baseline IOP 38.3 mmHg
[9] = dose 150 μg topical, 1 hr, baseline IOP 40.4 mmHg
[10] = dose 150 μg topical, 3 hr, baseline IOP 40.4 mmHg
[11] = dose 150 μg topical, 6 hr, baseline IOP 40.4 mmHg

SMILES	EC50 [1] [nM]	Emax [1] [%]	EC50 (r5-HT2A) [nM]	Emax (r5-HT2A) [%]	Emax [2] [%]	EC50 [2] [nM]	Emax [3] [%]	EC50 [3] [nM]	Emax [4] [%]	EC50 [4] [nM]	further results
Oc1cccc(OCc2ccc3c(c2)CCNCC3)c1 [Example 7, 3-(2,3,4,5-tetrahydro-1H-3-benzazepin-7-ylmethoxy)phenol]	65	92	440	40							
COc1cccc(COc2cc3c(cc2C)CCNCC3)c1 [Example 8, 7-[(3-methoxybenzyl)oxy]-8-methyl-2,3,4,5-tetrahydro-1H-3-benzazepine]	250	102	1920	48	102	2.4	63	230	101	4.5	
COc1cc(Cc2ccc3c(c2)CCNCC3)cc(OC)c1 [Example 3, 7-(3,5-Dimethoxy-benzyl)-2,3,4,5-tetrahydro-1H-benzo[d]azepine]	629	70	> 10000		104	16.9	6	> 10000	105	20	
Oc1cccc(Cc2ccc3c(c2)CCNCC3)c1 [Example 2, 3-(2,3,4,5-Tetrahydro-1H-benzo[d]azepin-7-ylmethyl)-phenol]	120	100	> 1000		98	31	35	1240	109	8.8	
COc1cccc(Cc2ccc3c(c2)CCNCC3)c1 [Example 1, 7-(3-Methoxy-benzyl)-2,3,4,5-tetrahydro-1H-benzo[d]azepine]	82	100	386	39	102	1.5	87	390	105	1.1	% IOP change [5, 6]: −16.5%; IOP change (mmHg) [5, 6]: (6.6) mmHg; % IOP change [5, 7]: −33.1%; IOP change (mmHg) [5, 7]: (13.1) mmHg; % IOP change [5, 8]: −42.5%; IOP change (mmHg) [5, 8]: (16.8) mmHg; % IOP change [5, 9]: −15.6%; IOP change (mmHg) [5, 9]: (6.1) mmHg; % IOP change [5, 10]: −29.5%; IOP change (mmHg) [5, 10]: (12.3) mmHg; % IOP change [5, 11]: −37.8%; IOP change (mmHg) [5, 11]: (15.6) mmHg
COc1cccc(OCc2ccc3c(c2)CCNCC3)c1 [Example 6, 7-[(3-methoxyphenoxy)methyl]-2,3,4,5-tetrahydro-1H-3-benzazepine]	91	89	69	35	105	0.4	61	417	107	3.9	
